According to patent US20150246938A1, “NOVEL OLEFIN DERIVATIVE” (SHIONOGI & CO., LTD., priority 2011, published 2015):

What follows are compounds tested against T1, recombinant human ACC1 (Homo sapiens, UniProt Q13085) (assay: Measurement of inhibitory activity on human ACC1 (MALDI-TOF MS, acetyl CoA to malonyl CoA conversion)). Settings: not given.
T1 construct: a cDNA encoding human ACC1 (1-2346) was cloned from human liver cDNA library (BioChain); myc-tag (C); His-tag (C); made in house; host or cells: Sf-9 insect cells (baculovirus, FlashBACGOLD)
Type: biochemical
Source text: Recombinant baculovirus was generated using FlashBACGOLD system (Oxford Expression Technologies) according to the manufacturer's protocol. To express human ACC1, Sf-9 cells were infected with recombinant baculovirus. After infected cells were disrupted, the filtrated lysate was subjected to Ni-affinity chromatography and anion-exchange chromatography. The fractions containing human ACC1 protein were pooled as recombinant human ACC1 solution.
Recombinant human ACC1 and recombinant human ACC2, which were prepared by the method mentioned above, were preincubated with assay buffer solution (50 mM HEPES-KOH (pH 7.4), 10 mM magnesium chloride, 6-10 mM potassium citrate, 4 mM reduced form of glutathione, 1.5 mg/ml bovine serum albumin) for one hour. Then, 0.2 μL of each this invention compound solution (in DMSO) were dispensed to 384-well microplate, 5 μL of the preincubated enzyme solution and 5 μL of substrate solution (50 mM HEPES-KOH (pH 7.4), 1 mM ATP, 0.8 mM acetyl CoA and 25-50 mM potassium bicarbonate) were added to microplate. After centrifugation and shaking, the reaction mixtures were incubated in a humidified box at room temperature for 1 to 3 hours. After the incubation, the enzyme reactions were stopped by the addition of EDTA. Then, after the samples were cocrystallized with CHCA (α-cyano-4-hydroxy cinnamic acid) matrices on MALDI target plate, by using the matrix assist laser […] time-of-flight mass spectrometer (MALDI-TOF MS), samples were measured in reflector negative mode. Deprotonated ions of acetyl CoA (AcCoA) of substrate and malonyl CoA (MalCoA) of the reaction product were detected, then, the conversion rates of acetyl CoA to malonyl CoA was calculated by the intensity of [MalCoA-H]-/(Intensity of [MalCoA-H]-+Intensity of [AcCoA-H]-) using each signal strength. […] In addition, potassium citrate concentrations in assay buffer solution, potassium hydrogen carbonate concentrations in substrate solution and incubation time were adjusted by each lot of enzyme.
For `CCOc1ccc(Cc2ccc(/C=C/[C@H](C)NC(C)=O)cn2)c(Cl)c1` [Compound I-60], the IC50 was > 100000 nM.
`CCNC(=O)c1cc(C(=O)N[C@@H](C)/C=C/c2cnn(Cc3ccc(OCC4CC4)c(Cl)c3Cl)c2)ccn1` [Compound I-320] was tested, and the IC50 was > 100000 nM.
For `CCCc1ccc(Oc2ccc(/C=C/[C@H](C)NC(=O)CN)cn2)c(Cl)c1` [Compound I-390], the IC50 was > 100000 nM.
With `CCCc1ccc(Oc2ccc(/C=C/[C@H](C)NC(C)=O)cn2)c(OC)c1` [Compound I-438] the IC50 was > 100000 nM.

Same assay, conditions: recombinant human ACC1, MALDI-TOF MS readout; read-out: 50% inhibitory concentration (1050) on human ACCT
In the case of `CC(=O)N[C@@H](C)/C=C/c1cnc(Oc2ccc(OCC3CC3)cc2Cl)s1` [Compound I-1], the IC50 is reported as > 100000 nM.
`CCCc1ccc(Oc2ccc(/C=C/[C@H](C)NC(C)=O)cn2)c(Cl)c1` [Compound I-30] was tested, and the IC50 was > 100000 nM.
For `C[C@@H](/C=C/c1cnc(Oc2ccc(OCC3CC3)cc2Cl)s1)NC(=O)CC(=O)OC(C)(C)C` [Compound I-100], the IC50 was > 100000 nM.
In the case of `COC(=O)CCCCC(=O)N[C@@H](C)/C=C/c1cnc(Oc2ccc(OCC3CC3)cc2Cl)s1` [Compound I-130], the IC50 is reported as > 100000 nM.
In the case of `C[C@@H](/C=C/c1cnc(Oc2ccc(OCC3CC3)cc2Cl)s1)NC(=O)c1ccnc(N(C)C)c1` [Compound I-160], the IC50 is reported as > 100000 nM.
With `COC(=O)N[C@@H](C)/C=C/c1cnc(Oc2ccc(OCC3CC3)cc2Cl)s1` [Compound I-180] the IC50 was > 100000 nM.
For `CC(C)NC(=O)c1cc(C(=O)N[C@@H](C)/C=C/c2cnc(Oc3ccc(OCC4CC4)cc3Cl)s2)ccn1` [Compound I-210], the IC50 was > 100000 nM.
For `CNC(=O)COc1cc(C(=O)N[C@@H](C)/C=C/c2cnc(Oc3ccc(OCC4CC4)cc3Cl)s2)ccn1` [Compound I-250], the IC50 was > 100000 nM.
For `CC(=O)N[C@@H](C)/C=C/c1ccc(Oc2ccc(C(C)(C)C)cc2Cl)nc1` [Compound I-300], the IC50 was > 100000 nM.
For `CC(=O)N[C@@H](C)/C=C/c1ccc(Oc2ccc(-c3ncns3)cc2Cl)nc1` [Compound I-420], the IC50 was > 100000 nM.

What follows are compounds tested against T2, recombinant human ACC2 (Homo sapiens, UniProt O00763) (assay: Measurement of inhibitory activity on human ACC2 (MALDI-TOF MS, acetyl CoA to malonyl CoA conversion)). Settings: not given.
T2 construct: a cDNA encoding human ACC2 (27-2458) was cloned from human kidney cDNA library (Clontech); His-tag (N); made in house; host or cells: Sf-9 insect cells (Bac-to-Bac baculovirus)
T2 sequence (O00763 27-2458): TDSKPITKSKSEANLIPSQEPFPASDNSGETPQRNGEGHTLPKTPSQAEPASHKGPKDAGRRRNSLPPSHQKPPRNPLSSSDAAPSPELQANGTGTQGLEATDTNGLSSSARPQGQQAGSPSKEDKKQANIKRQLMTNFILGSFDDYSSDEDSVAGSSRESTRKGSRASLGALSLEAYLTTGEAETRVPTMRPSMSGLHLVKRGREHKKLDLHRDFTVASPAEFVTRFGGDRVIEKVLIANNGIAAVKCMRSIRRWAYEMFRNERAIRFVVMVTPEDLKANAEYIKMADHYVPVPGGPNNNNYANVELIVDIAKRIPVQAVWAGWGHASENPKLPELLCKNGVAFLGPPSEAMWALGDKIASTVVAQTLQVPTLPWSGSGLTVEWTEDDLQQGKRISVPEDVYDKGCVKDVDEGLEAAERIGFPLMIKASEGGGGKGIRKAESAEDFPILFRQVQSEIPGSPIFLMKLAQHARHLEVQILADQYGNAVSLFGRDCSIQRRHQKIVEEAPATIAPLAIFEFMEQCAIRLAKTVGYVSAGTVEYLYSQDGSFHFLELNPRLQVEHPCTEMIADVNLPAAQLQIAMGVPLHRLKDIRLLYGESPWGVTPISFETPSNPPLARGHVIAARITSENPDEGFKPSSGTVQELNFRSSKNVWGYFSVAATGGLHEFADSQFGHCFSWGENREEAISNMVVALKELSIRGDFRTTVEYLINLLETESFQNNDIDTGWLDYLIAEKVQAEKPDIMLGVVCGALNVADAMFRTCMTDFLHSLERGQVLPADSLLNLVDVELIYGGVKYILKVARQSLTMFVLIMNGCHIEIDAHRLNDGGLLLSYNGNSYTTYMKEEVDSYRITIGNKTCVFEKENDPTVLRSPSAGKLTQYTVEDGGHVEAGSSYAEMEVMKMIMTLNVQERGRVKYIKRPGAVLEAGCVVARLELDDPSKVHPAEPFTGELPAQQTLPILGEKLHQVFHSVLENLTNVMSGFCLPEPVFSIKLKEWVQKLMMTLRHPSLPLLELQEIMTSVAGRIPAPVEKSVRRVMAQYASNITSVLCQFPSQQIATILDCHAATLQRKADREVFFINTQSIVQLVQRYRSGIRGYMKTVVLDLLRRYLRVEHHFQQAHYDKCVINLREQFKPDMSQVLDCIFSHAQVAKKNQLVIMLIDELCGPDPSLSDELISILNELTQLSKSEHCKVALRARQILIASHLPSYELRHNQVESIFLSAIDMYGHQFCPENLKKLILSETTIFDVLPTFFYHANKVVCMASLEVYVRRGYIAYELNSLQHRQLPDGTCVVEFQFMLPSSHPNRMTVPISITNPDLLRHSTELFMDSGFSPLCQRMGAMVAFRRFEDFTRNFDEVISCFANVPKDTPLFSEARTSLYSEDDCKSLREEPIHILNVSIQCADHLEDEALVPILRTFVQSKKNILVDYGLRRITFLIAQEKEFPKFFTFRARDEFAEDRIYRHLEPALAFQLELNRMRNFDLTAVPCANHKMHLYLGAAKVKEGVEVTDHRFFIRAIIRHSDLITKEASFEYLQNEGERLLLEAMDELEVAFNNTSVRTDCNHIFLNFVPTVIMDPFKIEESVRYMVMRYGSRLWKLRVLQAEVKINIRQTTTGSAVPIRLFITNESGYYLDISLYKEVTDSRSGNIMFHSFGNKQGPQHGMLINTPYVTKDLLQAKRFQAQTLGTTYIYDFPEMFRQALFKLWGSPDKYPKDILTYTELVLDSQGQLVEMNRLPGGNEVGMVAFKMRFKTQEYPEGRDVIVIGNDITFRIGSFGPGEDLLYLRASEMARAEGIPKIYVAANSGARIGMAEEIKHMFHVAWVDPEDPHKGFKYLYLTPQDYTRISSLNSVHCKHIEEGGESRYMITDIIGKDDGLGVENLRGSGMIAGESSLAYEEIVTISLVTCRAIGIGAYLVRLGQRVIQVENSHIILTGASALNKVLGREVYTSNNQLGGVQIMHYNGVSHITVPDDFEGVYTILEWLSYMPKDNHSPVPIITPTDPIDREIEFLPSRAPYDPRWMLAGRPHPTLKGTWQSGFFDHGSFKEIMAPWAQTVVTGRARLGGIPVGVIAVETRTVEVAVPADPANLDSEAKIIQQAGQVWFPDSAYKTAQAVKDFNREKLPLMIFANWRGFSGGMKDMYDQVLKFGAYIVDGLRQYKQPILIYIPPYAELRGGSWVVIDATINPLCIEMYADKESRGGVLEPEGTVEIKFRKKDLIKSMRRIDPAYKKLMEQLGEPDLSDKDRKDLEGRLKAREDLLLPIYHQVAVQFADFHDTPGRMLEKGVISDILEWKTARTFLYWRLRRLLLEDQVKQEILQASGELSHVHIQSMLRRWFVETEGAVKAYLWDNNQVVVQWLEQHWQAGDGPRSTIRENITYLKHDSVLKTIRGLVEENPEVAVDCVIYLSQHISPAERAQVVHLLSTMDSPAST
Type: biochemical
Compound `CC(=O)N[C@@H](C)/C=C/c1ccc(Oc2ccc(C(C)(C)C)cc2Cl)nc1` [Compound I-300] has an IC50 of 18 nM.
For `CCCc1ccc(Oc2ccc(/C=C/[C@H](C)NC(=O)CN)cn2)c(Cl)c1` [Compound I-390], the IC50 was 540 nM.
Work on `CC(=O)N[C@@H](C)/C=C/c1ccc(Oc2ccc(-c3ncns3)cc2Cl)nc1` [Compound I-420] yielded an IC50 of 120 nM.

Same assay, conditions: inhibition activity on human ACC2, Table 82; read-out: IC50
`CCNC(=O)c1cc(C(=O)N[C@@H](C)/C=C/c2cnn(Cc3ccc(OCC4CC4)c(Cl)c3Cl)c2)ccn1` [Compound I-320] was tested, and the IC50 was 230 nM.

Same assay, conditions: inhibition activity on human ACC2, Table 84; read-out: IC50
Compound `CCCc1ccc(Oc2ccc(/C=C/[C@H](C)NC(C)=O)cn2)c(OC)c1` [Compound I-438] has an IC50 of 780 nM.
With `CCCc1cc(Oc2ccc(/C=C/[C@H](C)NC(C)=O)cn2)ccc1Cl` [Compound I-485] the IC50 was 130 nM.
In the case of `CC(=O)N[C@@H](C)/C=C/c1ccc(Oc2ccc3c(C)nsc3c2)nc1` [Compound I-486], the IC50 is reported as 110 nM.
`CCc1nc2cc(Cl)c(Oc3ccc(/C=C/[C@H](C)NC(C)=O)cn3)cc2s1` [Compound I-487] showed an IC50 of 38 nM.
`CC(=O)N[C@@H](C)/C=C/c1ccc(Oc2cc3sc(C(C)C)nc3cc2Cl)nc1` [Compound I-488] was tested, and the IC50 was 11 nM.
`CCOc1ccc(Oc2ccc(/C=C/[C@H](C)NC(C)=O)nc2)c(Cl)c1` [Compound I-489] was tested, and the IC50 was 550 nM.
For `CC(=O)N[C@@H](C)/C=C/c1ccc(Oc2ccc(OCC3CC3)cc2Cl)cn1` [Compound I-490], the IC50 was 42 nM.
In the case of `CC(=O)N[C@@H](C)/C=C/c1ccc(Oc2ccc3nc(C(F)(F)F)sc3c2Cl)nc1` [Compound I-491], the IC50 is reported as 5.8 nM.
`CC(=O)N[C@@H](C)/C=C/c1ccc(Oc2cnc(OCC3CC3)nc2)nc1` [Compound I-492] was tested, and the IC50 was 80 nM.
Work on `CC(=O)N[C@@H](C)/C=C/c1ccc(Oc2ccc(-c3ncc(F)cn3)cc2)nc1` [Compound I-493] yielded an IC50 of 150 nM.
With `CC(=O)N[C@@H](C)/C=C/c1ccc(Oc2ccc(C3CC3C)cc2Cl)nc1` (some centres unmarked) [Compound I-494] the IC50 was 14 nM.
For `CCc1nc2ccc(Oc3ccc(/C=C/[C@H](C)NC(C)=O)cn3)cc2o1` [Compound I-495], the IC50 was 21 nM.
For `CCCc1ccc(Oc2ccc(/C=C/[C@H](C)NC(C)=O)nc2)c(Cl)c1` [Compound I-496], the IC50 was 210 nM.
`CC(=O)N[C@@H](C)/C=C/c1cnc(Oc2ccc(C(C)(C)C)cc2Cl)cn1` [Compound I-497] showed an IC50 of 51 nM.
`CC(=O)N[C@@H](C)/C=C/c1ccc(Oc2ccc3c(c2)CC(C)(C)O3)nc1` [Compound I-498] gave an IC50 of 27 nM.
With `CC(=O)N[C@@H](C)/C=C/c1ccc(Oc2cnc(N3CCCCC3)nc2)nc1` [Compound I-499] the IC50 was 96 nM.
With `CC(=O)N[C@@H](C)/C=C/c1ccc(Oc2ccc3nc(C(C)C)oc3c2)nc1` [Compound I-500] the IC50 was 8.9 nM.
With `CC(=O)N[C@@H](C)/C=C/c1ccc(Oc2ccc3sc(C)nc3c2Cl)nc1` [Compound I-501] the IC50 was 31 nM.
With `CC(=O)N[C@@H](C)/C=C/c1ccc(Oc2ccc3nc(C(C)(C)C)sc3c2Cl)nc1` [Compound I-502] the IC50 was 7.1 nM.
Work on `CC(=O)N[C@@H](C)/C=C/c1ccc(Oc2ccc(-c3ccccc3)c(Cl)c2)nc1` [Compound I-503] yielded an IC50 of 5.1 nM.
For `CC(=O)N[C@@H](C)/C=C/c1ccc(Oc2ccc3nc(C(C)(C)C)sc3c2)nc1` [Compound I-504], the IC50 was 6.5 nM.
In the case of `CCOc1ccc(OCc2cccc(/C=C/[C@H](C)NC(C)=O)n2)c(Cl)c1` [Compound I-505], the IC50 is reported as 45 nM.
`CCOc1ccc(OCc2cccc(/C=C/[C@H](C)NC(C)=O)c2)c(Cl)c1` [Compound I-506] showed an IC50 of 8.2 nM.
`CC(=O)N[C@@H](C)/C=C/c1ccc(Oc2cc3c(cc2Cl)OC(C)(C)C3)nc1` [Compound I-507] showed an IC50 of 43 nM.
For `CC(=O)N[C@@H](C)/C=C/c1cnc(Oc2cc3c(cc2Cl)OC(C)(C)C3)cn1` [Compound I-508], the IC50 was 230 nM.
`CC(=O)N[C@@H](C)/C=C/c1ccc(Oc2ccc3nc(C)sc3c2C#N)nc1` [Compound I-509] showed an IC50 of 23 nM.
With `CC(=O)N[C@@H](C)/C=C/c1cnc(Oc2ccc3nc(C(F)(F)F)sc3c2Cl)cn1` [Compound I-510] the IC50 was 6 nM.
With `CC(=O)N[C@@H](C)/C=C/c1ccc(Oc2ccc3c(c2Cl)CCN(CC2CC2)C3=O)nc1` [Compound I-511] the IC50 was 88 nM.
`CC(=O)N[C@@H](C)/C=C/c1ccc(Oc2ccc(CC(C)(C)C)cc2Cl)cn1` [Compound I-512] was tested, and the IC50 was 140 nM.
In the case of `CC(=O)N[C@@H](C)/C=C/c1ccc(Oc2ccc(C3=CCC4(CC3)CC4)cc2Cl)cn1` [Compound I-513], the IC50 is reported as 27 nM.
`CC(=O)N[C@@H](C)/C=C/c1ccc(Oc2ccc(-c3ccc(F)cc3)cc2)nc1` [Compound I-514] showed an IC50 of 96 nM.
`CC(=O)N[C@@H](C)/C=C/c1ccc(Oc2ccc(-c3ccc(C#N)cc3)cc2)nc1` [Compound I-515] was tested, and the IC50 was 860 nM.
In the case of `CC(=O)N[C@@H](C)/C=C/c1ccc(Oc2ccc(N3CCCCC3)nc2)nc1` [Compound I-516], the IC50 is reported as 170 nM.
`CC(=O)N[C@@H](C)/C=C/c1ccc(Oc2cnc(N3CCC(F)(F)CC3)nc2)nc1` [Compound I-517] gave an IC50 of 47 nM.
`CC(=O)N[C@@H](C)/C=C/c1ccc(Oc2ccc3c(c2)C(=O)N(CC2CC2)CC3)nc1` [Compound I-518] was tested, and the IC50 was 800 nM.
Compound `CC(=O)N[C@@H](C)/C=C/c1ccc(Oc2ccc3c(c2)OC(C)(C)C3)nc1` [Compound I-519] has an IC50 of 59 nM.
`CC(=O)N[C@@H](C)/C=C/c1ccc(Oc2cnc(N3CCC(F)CC3)nc2)nc1` [Compound I-520] gave an IC50 of 75 nM.
Work on `CCOc1ccc(Oc2ccc(/C=C/C(C)CNC(C)=O)cn2)c(Cl)c1` (centres unmarked) [I’-1] yielded an IC50 of 560 nM.
